# Paper PMC11507441, “Oilseed Cakes: A Promising Source of Antioxidant, and Anti-Inflammatory Agents—Insights from Lactuca sativa” (International Journal of Molecular Sciences, 2024)
# Columns and labels:
# dermal inflammation = experiment: Histopathological assessment of paw skin tissue (carrageenan model); format: in vivo, rat; settings: Group 3, ibuprofen 10 mg/kg; 5 h after carrageenan
# Description: Five hours following the carrageenan injection, tissue specimen samples from the paw skin tissue of every group under study were removed for histological examination. Prior to being submerged in paraffin blocks, they were fixed in a 10% formalin solution and stained with hematoxylin-eosin. Using a microtome, paraffin sections with a thickness of 5 µm were cut, and hematoxylin and eosin were frequently applied to the sections. Microscopically, these tissue slices were inspected. Consequently, the sections were examined under a light microscope; on the other hand, photos taken with a digital camera (Canon Power-shot D10) recorded the progression of paw oedema.
# CAT = CAT activity in rat paw tissue homogenate (carrageenan model); format: in vivo; settings: paw tissue 5 h after carrageenan; ibuprofen 10 mg/kg
# Protocol: (§1) The levels of inflammatory mediators (IL-1β, TNF-α, and PGE2) in rat paw tissue homogenate were measured using the following Kits: Rat TNF-α (Tumor Necrosis Factor Alpha) ELISA Kit from Elabscience® Company, Houston, TX, USA, Interleukin 1 Beta (IL-1b) Organism Species: Rattus norvegicus (Rat) from Cloud Clone Crop Company and Rat PGE2 (Prostaglandin E2) ELISA Kit from Fine test® company Hubei, China. In addition, oxidative stress parameters in rat paw tissue homogenate were measured using superoxide dismutase, glutathione peroxidase, and catalase Kits from the Biodiagnostic company, Birmingham, UK.
# (§2) Rats were slaughtered, and their paw tissues were gathered and weighed five hours after the carrageenan was administered. The tissues underwent processing after being fixed in 10% formalin. Rat paw tissue was homogenized, and its oxidative stress indices (SOD, CAT, and GPx) as well as the levels of inflammatory mediators (IL-1β, TNF-α, and PGE2) were measured.
# SOD = SOD activity in rat paw tissue homogenate (carrageenan model); format: in vivo
# Protocol: as §1, §2
# [1] = system: carrageenan-induced paw oedema; experiment: Carrageenan-induced paw oedema; format: in vivo; settings: dose 10 mg/kg oral, rat
# Protocol: Adult albino rats 180-220 g of both sexes used in the investigation were acquired from the Mansoura University Faculty of Pharmacy's Animal House. Standard laboratory diet and water were provided, and they were housed in cages maintained at a constant temperature of 22 ± 2 °C. The Animal Care and Use Committee (MU-ACUC) of Mansoura University, Egypt, has approved all procedures involving animals with code number: […] Throughout the experiment, medications and extracts were given orally in doses of 1 mL/100 g of the rat's body weight after being solubilized in carboxymethyl cellulose (CMC) in order to create a suspension formula. In this test, rats were divided into six groups, with each group containing 5 animals. Group-1: […] Group-2: Positive control (carrageenan-induced oedema, Sigma (St. Louis, MO, USA)) without any treatment. […] Group-4: […] extract of Lactuca sativa was administered at a 2 g/kg dose. Group-5: Compound (1) is administered at a dose of 20 mg/kg. Group-6: Compound (1) at a dose of 40 mg/kg. Group-7: Combination of standard and compound (1) at doses of (10 + 20) mg/kg, respectively. […] Using a digital vernier calliper, the swelling of the paw that had been injected with carrageenan was measured prior to injection as well as 1, 2, 3, 4, and 5 h following the treatment's induction. The percentage inhibition of oedema in the test animals treated with the extract compared to the carrageenan control group was used to calculate the anti-inflammatory activity. The formula […] was used to calculate the percentage inhibition of inflammation, where “dt” represents the difference in paw volume in the drug-treated group and “dc” represents the difference in paw volume relative to the control group. Moreover, “I” represents the suppression of inflammation.
# GPx = GPx activity in rat paw tissue homogenate (carrageenan model); format: in vivo
# Protocol: as §1, §2
# [2] = paw tissue 5 h after carrageenan, ibuprofen 10 mg/kg
smiles,measurement,setting,value
"CC(C)Cc1ccc(C(C)C(=O)O)cc1 (stereo not shown) [Ibuprofen, ibuprofen, reference compound]",Histopathology of paw skin (H&E),dermal inflammation,mild dermal inflammation
same,CAT (U/gm Tissue),CAT,2.20 ± 0.20 U/gm Tissue
same,SOD protection,SOD; ibuprofen alone,75.17%
same,SOD (U/gm Tissue),SOD; [2],142.1 ± 14.71 U/gm Tissue
same,% Inhibition (%I) of paw oedema,[1]; 1 h,15.62%
same,Increase in Paw Oedema,[1]; 1 h,0.69 ± 0.16 mL
same,% Inhibition (%I) of paw oedema,[1]; 2 h,25.62%
same,Increase in Paw Oedema,[1]; 2 h,1.57 ± 0.21 mL
same,% Inhibition (%I) of paw oedema,[1]; 3 h,28.5%
same,Increase in Paw Oedema,[1]; 3 h,1.82 ± 0.38 mL
same,% Inhibition (%I) of paw oedema,[1]; 4 h,62.66%
same,Increase in Paw Oedema,[1]; 4 h,1.49 ± 0.47 mL
same,% Inhibition (%I) of paw oedema,[1]; 5 h,70.9%
same,Increase in Paw Oedema,[1]; 5 h,1.20 ± 0.37 mL
same,GSH protection,GPx; ibuprofen alone,78.74%
same,GPx (U/gm Tissue),GPx; [2],93.35 ± 8.84 U/gm Tissue
